Measurements: PubChem BioAssay AID206 (DTP/NCI, 2004)
“And” between values parts separate entries of the source, which are not always exact repeats. Identical values can stand only once. Results filed as inconclusive are left out.

Tested on: nude mice, HT29 intrarenal xenograft, tumor weight T/C
Experiment: NCI In Vivo Anticancer Drug Screen. Data for tumor model HT29;CX-1 Human Adenocarcinoma (MER+) (intrarenal inoculation) in NU/NU Swiss (nude) mice
Conditions: endpoint: mean tumor weight change, higher = larger tumour
Procedure: The antitumor activity of compounds was measured in mice bearing transplantable tumors. Survival or tumor size were measured and the results are expressed as the measurement made in the treated group (T) divided by the measurement made in the vehicle treated control group (C). The tumor model used in this assay is HT29;CX-1 Human Adenocarcinoma (MER+) (intrarenal inoculation) in NU/NU Swiss (nude) mice

## c1cc[c]([Sn][c]2ccccc2)cc1
dose: 80.0 mg/kg/injection, schedule: Q01DX010 (sc), vehicle: saline
  T/C: 88 % of control
dose: 160.0 mg/kg/injection, schedule: Q01DX010 (sc), vehicle: saline
  T/C: 113 % of control
dose: 320.0 mg/kg/injection, schedule: Q01DX010 (sc), vehicle: saline
  T/C: 122 % of control

## CCC(=O)N(C)[C@@H](C)C(=O)O[C@H]1CC(=O)N(C)c2cc(cc(OC)c2Cl)C/C(C)=C/C=C[C@@H](OC)[C@@]2(O)C[C@H](OC(=O)N2)[C@@H](C)[C@@H]2O[C@@]12C
dose: 0.03 mg/kg/injection, schedule: Q01DX010 (sc), vehicle: saline + alcohol
  T/C: 171 % of control
dose: 0.06 mg/kg/injection, schedule: Q01DX010 (sc), vehicle: saline + alcohol
  T/C: 65 % of control
dose: 0.07 mg/kg/injection, schedule: Q01DX010 (sc), vehicle: saline + alcohol
  T/C: 120 % of control
dose: 0.12 mg/kg/injection, schedule: Q01DX010 (sc), vehicle: saline + alcohol
  T/C: 34 % of control
dose: 0.13 mg/kg/injection, schedule: Q01DX010 (sc), vehicle: saline + alcohol
  T/C: 69 % of control
dose: 0.25 mg/kg/injection, schedule: Q01DX010 (sc), vehicle: saline + alcohol
  T/C: 2 % of control and 18 % of control

## COC1=CC(=O)C(OC)=C(OC)C1=O
dose: 38.0 mg/kg/injection, schedule: Q04DX004 (sc), vehicle: saline with Tween-80
  T/C: 78 % of control
dose: 75.0 mg/kg/injection, schedule: Q04DX004 (sc), vehicle: saline with Tween-80
  T/C: 88 % of control
dose: 150.0 mg/kg/injection, schedule: Q04DX004 (sc), vehicle: saline with Tween-80
  T/C: 89 % of control

## Cc1c(N)nc(C(CC(N)=O)NCC(N)C(N)=O)nc1C(=O)NC(C(=O)NC(C)C(O)C(C)C(=O)NC(C(=O)NCCc1nc(-c2nc(C(=O)NCCCNCCCc3ccccn3)cs2)cs1)C(C)O)C(OC1OC(CO)C(O)C(O)C1OC1OC(CO)C(O)C(OC(N)=O)C1O)c1cnc[nH]1 (configuration not stated)
dose: 9.0 mg/kg/injection, schedule: Q04DX004 (sc), vehicle: water
  T/C: 164 % of control
dose: 18.0 mg/kg/injection, schedule: Q04DX004 (sc), vehicle: water
  T/C: 120 % of control
dose: 36.0 mg/kg/injection, schedule: Q04DX004 (sc), vehicle: water
  T/C: 90 % of control

## Oc1cc2c3c(c1)c1cc4c(cc1c[n+]3CC2)OCO4
dose: 100.0 mg/kg/injection, schedule: Q04DX004 (sc), vehicle: water
  T/C: 53 % of control
dose: 200.0 mg/kg/injection, schedule: Q04DX004 (sc), vehicle: water
  T/C: 61 % of control
dose: 400.0 mg/kg/injection, schedule: Q04DX004 (sc), vehicle: water
  T/C: 73 % of control

## O=C1c2ccccc2C(=O)c2c3c(cc(NCCNCCO)c21)N(CCO)CCN3
dose: 100.0 mg/kg/injection, schedule: Q04DX004 (sc), vehicle: DMSO
  T/C: 168 % of control
dose: 200.0 mg/kg/injection, schedule: Q04DX004 (sc), vehicle: DMSO
  T/C: 112 % of control
dose: 400.0 mg/kg/injection, schedule: Q04DX004 (sc), vehicle: DMSO
  T/C: 59 % of control
dose: 800.0 mg/kg/injection, schedule: Q04DX004 (sc), vehicle: DMSO
  T/C: 104 % of control

## O=C1C2(Cl)C3(Cl)C4(Cl)C(Cl)(Cl)C5(Cl)[C@]3(Cl)C1(Cl)[C@]5(Cl)C24Cl (some centres not stated)
dose: 75.0 mg/kg/injection, schedule: Q04DX004 (sc), vehicle: Klucel (hydroxypropylcellulose) (HPC)
  T/C: 60 % of control

## Cc1ccc2c(c1)N=C(Nc1ccccc1)N=S2(C)=O (configuration not stated)
dose: 50.0 mg/kg/injection, schedule: Q04DX004 (sc), vehicle: saline with Tween-80
  T/C: 48 % of control
dose: 100.0 mg/kg/injection, schedule: Q04DX004 (sc), vehicle: saline with Tween-80
  T/C: 67 % of control
dose: 200.0 mg/kg/injection, schedule: Q04DX004 (sc), vehicle: saline with Tween-80
  T/C: 66 % of control

## Cc1cn(C2CC3[O][Sn]([c]4ccccc4)([c]4ccccc4)[O]CC3O2)c(=O)[nH]c1=O (configuration not stated)
dose: 25.0 mg/kg/injection, schedule: Q01DX010 (sc), vehicle: saline
  T/C: 60 % of control
dose: 50.0 mg/kg/injection, schedule: Q01DX010 (sc), vehicle: saline
  T/C: 60 % of control
dose: 100.0 mg/kg/injection, schedule: Q01DX010 (sc), vehicle: saline
  T/C: 79 % of control
dose: 200.0 mg/kg/injection, schedule: Q01DX010 (sc), vehicle: saline
  T/C: 55 % of control
dose: 600.0 mg/kg/injection, schedule: Q04DX004 (sc), vehicle: saline
  T/C: 94 % of control
dose: 1200.0 mg/kg/injection, schedule: Q04DX004 (sc), vehicle: saline
  T/C: 95 % of control
dose: 2400.0 mg/kg/injection, schedule: Q04DX004 (sc), vehicle: saline
  T/C: 94 % of control

## NC(=O)NO
dose: 37.5 mg/kg/injection, schedule: Q04DX004 (sc), vehicle: saline
  T/C: 75 % of control
dose: 75.0 mg/kg/injection, schedule: Q04DX004 (sc), vehicle: saline
  T/C: 79 % of control
dose: 150.0 mg/kg/injection, schedule: Q04DX004 (sc), vehicle: saline
  T/C: 75 % of control
dose: 300.0 mg/kg/injection, schedule: Q04DX004 (sc), vehicle: saline
  T/C: 86 % of control
